Laboratory results: ChEMBL document CHEMBL3877336, “Structure-Based Design of ASK1 Inhibitors as Potential Agents for Heart Failure” (ACS Med Chem Lett, 2017)

Legend:
[1] = target: T1, Mitogen-activated protein kinase kinase kinase 5 (Homo sapiens, UniProt Q99683); assay: Inhibition of recombinant human N-terminal GST-tagged ASK1 catalytic domain (654 to 971 residues) expressed in baculovirus infected sf21 cells using STK3 as substrate after 60 mins by HTRF assay
T1 sequence (Q99683 whole entry): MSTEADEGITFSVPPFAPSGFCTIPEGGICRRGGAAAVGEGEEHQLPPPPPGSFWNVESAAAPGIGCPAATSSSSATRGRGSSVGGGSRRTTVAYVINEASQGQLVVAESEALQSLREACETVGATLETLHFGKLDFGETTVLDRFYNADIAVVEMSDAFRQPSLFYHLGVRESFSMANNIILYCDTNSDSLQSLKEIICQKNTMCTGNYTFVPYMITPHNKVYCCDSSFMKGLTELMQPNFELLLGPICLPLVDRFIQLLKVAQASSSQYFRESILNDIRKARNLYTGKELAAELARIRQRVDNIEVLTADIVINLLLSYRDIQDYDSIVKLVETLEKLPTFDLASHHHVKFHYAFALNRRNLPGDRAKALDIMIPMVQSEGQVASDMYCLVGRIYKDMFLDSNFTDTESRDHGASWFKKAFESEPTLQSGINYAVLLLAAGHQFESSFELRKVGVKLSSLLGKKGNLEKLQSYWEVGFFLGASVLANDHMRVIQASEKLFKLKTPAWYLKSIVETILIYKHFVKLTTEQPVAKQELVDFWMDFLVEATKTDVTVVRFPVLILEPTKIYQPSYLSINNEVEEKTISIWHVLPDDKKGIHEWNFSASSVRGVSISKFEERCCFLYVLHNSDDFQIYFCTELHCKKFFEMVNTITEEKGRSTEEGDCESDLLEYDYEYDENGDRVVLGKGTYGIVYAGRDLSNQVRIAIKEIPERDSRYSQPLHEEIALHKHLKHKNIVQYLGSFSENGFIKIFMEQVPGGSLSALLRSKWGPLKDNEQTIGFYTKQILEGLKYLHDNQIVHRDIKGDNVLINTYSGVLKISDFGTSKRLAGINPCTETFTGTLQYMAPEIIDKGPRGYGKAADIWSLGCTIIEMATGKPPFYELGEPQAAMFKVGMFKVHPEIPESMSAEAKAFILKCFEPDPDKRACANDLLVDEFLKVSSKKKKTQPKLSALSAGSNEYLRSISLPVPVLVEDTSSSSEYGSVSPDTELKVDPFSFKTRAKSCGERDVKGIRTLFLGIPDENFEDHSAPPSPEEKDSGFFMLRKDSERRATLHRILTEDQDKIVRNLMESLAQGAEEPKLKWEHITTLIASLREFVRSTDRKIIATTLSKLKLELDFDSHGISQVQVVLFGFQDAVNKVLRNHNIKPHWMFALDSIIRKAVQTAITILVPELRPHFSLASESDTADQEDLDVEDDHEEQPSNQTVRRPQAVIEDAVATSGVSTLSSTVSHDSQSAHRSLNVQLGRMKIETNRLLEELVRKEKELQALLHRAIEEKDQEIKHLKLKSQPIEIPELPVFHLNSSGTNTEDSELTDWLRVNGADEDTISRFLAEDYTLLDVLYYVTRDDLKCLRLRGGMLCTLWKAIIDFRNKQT

[2] = target: T1, Mitogen-activated protein kinase kinase kinase 5; assay: Inhibition of human ASK1 expressed in HEK293 cells assessed as inhibition of H2O2-induced JNK phosphorylation preincubated for 30 mins followed by H2O2 addition measured after 30 mins by ELISA; assay type: cell-based
[3] = Intrinsic clearance in human liver microsomes at 1 uM up to 30 mins in presence of NADPH by UPLC-MS/MS analysis; assay type: ADME; details: read-out: CLH
[4] = Intrinsic clearance in rat liver microsomes at 1 uM up to 30 mins in presence of NADPH by UPLC-MS/MS analysis; assay type: ADME; details: read-out: CLH
[5] = system: MDR1 (human); assay: Apparent permeability from apical to basolateral side in pig LLC-PK1 cells expressing human MDR1 at 10 uM after 2 hrs by LC-MS/MS analysis; assay type: ADME, cell-based, Sus scrofa
[6] = system: MDR1 (human); assay: Apparent permeability from basolateral to apical side in pig LLC-PK1 cells expressing human MDR1 at 10 uM after 2 hrs by LC-MS/MS analysis; assay type: ADME, cell-based, Sus scrofa
[7] = Solubility of the compound in pH 1 solution at 155 uM after overnight incubation by HPLC method; assay type: physicochemical; details: buffer, pH 1, 155 µM
[8] = system: Rattus norvegicus; assay: Anti-ischemic activity in Langendorff perfused Sprague-Dawley rat heart assessed as reduction in infarct size at 2.25 mg/kg, po administered via gavage administered 1 hr prior to ischemia/reperfusion relative to control; assay type: functional; parameters: scale not given: the % may be the effect or the level left
[9] = system: Rattus norvegicus; assay: Anti-ischemic activity in Langendorff perfused Sprague-Dawley rat heart assessed as reduction in infarct size at 2.25 mg/kg, po administered via gavage 8 hrs prior to ischemia/reperfusion relative to control; assay type: functional; parameters: scale not given: the % may be the effect or the level left

| SMILES | IC50 [1] | EC50 [2] | further results |
| --- | --- | --- | --- |
| CC[C@@H](C)n1cnnc1-c1cccc(N2Cc3ccccc3C2=O)n1 | 50.1 nM | – | – |
| Cc1ccc(C(=O)Nc2cccc(-c3nncn3C(C)C)n2)c(F)c1 | 50.1 nM | – | – |
| CC(CC#N)n1cnnc1-c1cccc(N2Cc3ccccc3C2=O)n1 (stereo not drawn) | 20 nM | – | – |
| C[C@@H](CO)n1cnnc1-c1cccc(N2Cc3ccccc3C2=O)n1 | 31.6 nM | – | – |
| CC[C@H](C)n1cnnc1-c1cccc(N2Cc3ccccc3C2=O)n1 | 20 nM | – | – |
| CC(CCO)n1cnnc1-c1cccc(N2Cc3ccccc3C2=O)n1 (stereo not drawn) | 39.8 nM | – | – |
| O=C1c2ccccc2CN1c1cccc(-c2nncn2CC2CCO2)n1 (stereo not drawn) | 794 nM | – | – |
| Cc1cc(F)c(C(=O)Nc2ccccn2)cc1-n1cnc(C2CC2)c1 | 6310 nM | – | – |

Now those with a lower IC50 [1], led by results:

| IC50 [1] | EC50 [2] | SMILES | further results |
| --- | --- | --- | --- |
| 15.8 nM | 31.6 nM | CC(C)Oc1ccc2c(c1)C(=O)N(c1cccc(-c3nncn3C(C)C)n1)C2 | – |
| 12.6 nM | – | CC(CF)n1cnnc1-c1cccc(N2Cc3ccccc3C2=O)n1 (stereo not drawn) | – |
| 12.6 nM | – | CC(C)n1cnnc1-c1cccc(N2Cc3ccccc3C2=O)n1 | – |
| 10 nM | – | C[C@H](CO)n1cnnc1-c1cccc(N2Cc3ccccc3C2=O)n1 | – |
| 7.94 nM | 15.8 nM | COCCOc1ccc2c(c1)C(=O)N(c1cccc(-c3nncn3C(C)C)n1)C2 | – |
| 7.94 nM | 12.6 nM | COCCOc1ccc2c(c1)C(=O)N(c1cccc(-c3nncn3[C@H](C)CO)n1)C2 | – |
| 6.31 nM | 6.31 nM | CC(C)n1cnnc1-c1cccc(N2Cc3ccc(OC[C@@H]4CN(C)CCO4)cc3C2=O)n1 | – |
| 5.01 nM | 6.31 nM | CC(C)Oc1ccc2c(c1)C(=O)N(c1cccc(-c3nncn3[C@H](C)CO)n1)C2 | CLint scaled at 1 µM [3]: < 8.3 mL/min/kg; CLint scaled at 1 µM [4]: < 16.6 mL/min/kg; Papp A→B at 2 h, 10 µM [5]: 5.49 ×10⁻⁶ cm/s; Papp B→A at 2 h, 10 µM [6]: 26.2 ×10⁻⁶ cm/s; solubility [7]: Soluble; Activity [8]: 42%; Activity [9]: 24% |
